Measured values published in US4939142A, “Substituted styrene derivatives” (priority 1989, dated 1990).
Like-named read-outs stand apart in the source and are kept apart here.

Experiments:
[1] = test system: pentetrazole spasm; experiment: Inhibition of pentetrazol spasm on mice; conditions: for ED50: Mus musculus, po; for Therapeutical index: Table V, pentetrazole spasm, LD50/ED50
Experimental: The modified method of Benziger and Hane is used on white mice. Groups consisting of 6 animals are used for each dose. […] The test compounds are administered orally one hour before the treatment with pentetrazole; in the control group the animals obtain the carrier orally at the same points of time.
The therapeutical index data disclosed in the above Tables are calculated by means of the following equation: [formula]

[2] = test system: hexobarbital narcosis; experiment: Hexobarbital narcosis potentiating effect; conditions: for ED50: Mus musculus, po; for Therapeutical index LD50 /ED50: Table I, hexobarbital narcosis
Experimental: The test is carried out on white mice. Groups consisting of six mice are used for each dose and test compound. The test compound is administered orally and an hour after this treatment narcosis is induced by means of a 40 mg/kg i.v. dose of hexobarbital. The control group receives carrier instead of the test compound.
Those mice are considered to be having a positive reaction which show a narcosis time at least 2.5 times longer than that of the control group. The ED50 values thus transformed are calculated.

[3] = in vivo; conditions: mouse, in vivo, po
Experimental: Male and female white mice (CFLP strain, 18-22 g) are used, 10 animals per dose. The test compounds are administered orally in a volume of 20 ml/kg. After administration the mice are observed for a period of 7 days. The animals are kept in plastic boxes, on wood litter, at room temperature. The animals receive standard mouse fodder and tap water ad libitum.

[4] = test system: nicotine spasm and lethality; experiment: Inhibition of nicotine spasm and lethality on mice (Stone); type: in vivo; conditions: Table VIII; for ED50: Mus musculus, oral, 1 h before nicotine 1.4 mg/kg i.v.; for Therapeutical index: nicotine spasm and lethality, LD50/ED50
Description: [Stone, C. C., Mecklenburg, K. L., Torchiana, M. L.: Arch. Int.

[5] = test system: motility; experiment: animal or person; type: in vivo; conditions: for ED50: Mus musculus, po; for Therapeutical index: Table II, motility inhibition, LD50/ED50
Experimental: The test is accomplished according to the method of Borsy et al. in a 10-channel Dews system equipment, whereby 3 mice are used per channel. The test compound or the carrier, respectively, is administered orally, and one hour after the said treatment the animals are placed into the apparatus and the number of the interruptions of infrared radiation is registered for 30 minutes.
The results are summarized in Table II and documented by means of suitable statistics for each experiment.
[J. Borsy, E. Csanyi, I. Lazar: Arch. Int. Pharmacodyn. 124, 1 (1960)].

[6] = test system: yohimbin toxicity; experiment: animal or person; conditions: for ED50: Mus musculus; for Therapeutical index: Table IV, yohimbin toxicity, LD50/ED50
Experimental: The test is carried out according to the method of Quinton. Groups consisting of 10 mice are used for each dose. The animal groups are treated with the suitable doses of the test compounds while the control group is treated with a carrier. An hour after the treatment a sublethal dose of yohimbin is administered intraperitoneally in a volume of 20 ml/kg. The perished animals are counted after 1 and 24 hours.

[7] = test system: acetic acid writhing; experiment: Acetic acid "writhing test" on mice (Newbould); type: in vivo, white mice; conditions: for ED50: Mus musculus; for Therapeutical index: acetic acid writhing, LD50/ED50
Experimental: In the period between the 5th and 10th minutes following the administration of acetic acid the number of the characteristic "writhing" responses is counted for each animal and the "total writhing number" (within 5 minutes) is expressed as the percentage of the value obtained for the control animals. The mice are treated with the test compound and the carrier, respectively, orally 1 hour before the administration of acetic acid. 12 animals are used per dose.
[Newbould, B. D.: Brit.

[8] = test system: maximal electroshock; experiment: Inhibition of maximal electroshock on mice
Experimental: The test is carried out on white mice weighing 20-25 g. The animals receive an electric shock through corneal electrodes (50 Hz; 45 mA, 0.4 sec.). A total inhibition of the tonus extensor spasms of the posterior extremities is regarded as the criterium of anticonvulsive effect. The test compound and the carrier, respectively, are administered orally an hour before the electric shock.

[9] = test system: ulcus secretion; experiment: animal or person; type: in vivo; conditions: Rattus norvegicus, po, 5 h
Experimental: The test is carried out according to the method of Nakamura on rats (Wistar strain) weighing 150-230 g and fasted for 48 hours. Each animal group consists of 4 male and 4 female rats. On the day of the experiment the pylorus of the animals is bound and the corresponding dose of the test compound is administered orally immidiately after operation. The animals are killed with ether 5 hours after the operation, their stomach is removed, cut along the large curve and placed on plastic plates.

[10] = Table VII, oral, 1 h before acetic acid i.p., read-out: ED50

## CN(C)CCO/N=C1C=C(/C=C/c2ccc(Cl)cc2)CC(C)(C)C/1 [Example 15, 5,5-Dimethyl-3-(E)-[(4'-chloro-phenyl)-vinyl]-1-(E)-(2"-dimethylamino-ethoxyimino)-cyclohexene]
[1]
  ED50: 120 mg/kg
  Therapeutical index: 16.6
[2]
  ED50: 25 mg/kg
  Therapeutical index LD50 /ED50: 80.0
[3]
  LD50 at 168 h: 2000 mg/kg
[4]
  ED50: 70 mg/kg
  Therapeutical index: 28.6

## CCCC(C)(COC(N)=O)COC(N)=O [Meprobamate, reference compound]
[2]
  ED50: 260 mg/kg
  Therapeutical index LD50 /ED50: 4.2
[5]
  ED50: 270 mg/kg

## CCN(CC)CCO/N=C1C=C(/C=C/c2ccc(OC)cc2)CC(C)(C)C/1 [Example 23, 5,5-Dimethyl-3-(E)-[(4'-methoxy-phenyl)-vinyl]-1-(E)-(2"-diethylamino-ethoxyimino)-2-cyclohexene]
[1]
  ED50: 58 mg/kg
  Therapeutical index: 17.2
[3]
  LD50 at 168 h: 1000 mg/kg

## CC1(C)CC(/C=C/c2ccccc2)=CC(=N/OCCN2CCOCC2)/C1 [Example 17, 5,5-Dimethyl-3-(E)-phenyl-vinyl-1-(E)-(N-morpholino-ethoxyimino)-2-cyclohexene]
[1]
  ED50: 148 mg/kg
  Therapeutical index: 10.8
[2]
  ED50: 13 mg/kg
  Therapeutical index LD50 /ED50: 123.0
[3]
  LD50 at 168 h: 1600 mg/kg
[4]
  ED50: 40 mg/kg
  Therapeutical index: 40.0

## CN(C)CCCN1c2ccccc2CCc2ccccc21 [Imipramin, reference compound]
[6]
  ED50: 21 mg/kg

## COc1ccc(/C=C/C2=CC(=N/OCC(C)CN(C)C)/CC(C)(C)C2)cc1 (racemic) [Example 25, D,L-5,5-Dimethyl-3-(E)-[(4'-methoxy-phenyl)-vinyl]-1-(E)-(2"-methyl-3"-dimethylamino-propoxyimino)-2-cyclohexane]
[1]
  ED50: 15.5 mg/kg
  Therapeutical index: 83.9
[7]; po
  ED50: ~200 mg/kg
[7]; Table VII
  Therapeutical index: 65
[3]
  LD50 at 168 h: 1300 mg/kg
[5]
  ED50: ~200 mg/kg
  Therapeutical index: 6.5

## CNC1=Nc2ccc(Cl)cc2C(c2ccccc2)=[N+]([O-])C1 [Chlordiazepoxid, reference compound]
[2]
  ED50: 10 mg/kg
  Therapeutical index LD50 /ED50: 62.0
[3]
  LD50 at 168 h: 620 mg/kg

## CN1CCN(CCCO/N=C2C=C(/C=C/c3ccccc3)CC(C)(C)C/2)CC1 [Example 2, 5,5-Dimethyl-3-(E)-phenyl-vinyl-1-(E)-(4'-methyl-1'-piperazinyl-propoxyimino)-2-cyclohexene]
[1]
  ED50: 140 mg/kg
  Therapeutical index: 14.3
[3]
  LD50 at 168 h: 2000 mg/kg
[4]
  ED50: 78 mg/kg
  Therapeutical index: 25.6
[5]
  ED50: 190 mg/kg
  Therapeutical index: 10.5

## CN1C(=O)OC(C)(C)C1=O [Trimethadion, reference compound]
[1]
  ED50: 490 mg/kg
[8]; Mus musculus, po
  ED50: 400 mg/kg
[8]; Table VI, maximal electroshock, LD50/ED50
  Therapeutical index: 5.1

## COc1ccc(/C=C/C2=CC(=N/OCCCN(C)C)/CC(C)(C)C2)cc1 [Example 11, 5,5-Dimethyl-3-(E)-[(4'-methoxy-phenyl)-vinyl]-1-(E)-(3"-dimethylamino-propoxyimino)-2-cyclohexene]
[1]
  ED50: 78 mg/kg
  Therapeutical index: 25.6
[2]
  ED50: 140 mg/kg
  Therapeutical index LD50 /ED50: 14.3
[3]
  LD50 at 168 h: 2000 mg/kg
[6]
  ED50: 40 mg/kg
  Therapeutical index: 50

## CN1CCN(CCCO/N=C2C=C(/C=C/c3ccc(Cl)cc3)CC(C)(C)C/2)CC1 [Example 4, 5,5-Dimethyl-3-(E)-[(4'-chloro-phenyl)-vinyl]-1-(E)-(4"-methyl-1"-piperazinyl-propoxyimino)-2-cyclohexene]
[1]
  ED50: 180 mg/kg
  Therapeutical index: 11.1
[3]
  LD50 at 168 h: 2000 mg/kg

## CC1(C)CC(/C=C/c2ccccc2)=CC(=N/OCCN2CCCCC2)/C1 [Example 16, 5,5-Dimethyl-3-(E)-phenyl-vinyl-1-(E)-(2'-N-piperidyl-ethyl)-oxyimino-2-cyclohexene]
[1]
  ED50: 185 mg/kg
  Therapeutical index: 10.0
[2]
  ED50: 40 mg/kg
  Therapeutical index LD50 /ED50: 46.0
[3]
  LD50 at 168 h: 1850 mg/kg
[4]
  ED50: 70 mg/kg
  Therapeutical index: 26.4
[5]
  ED50: 150 mg/kg
  Therapeutical index: 12.3

## COc1cc(C(=S)N2CCOCC2)cc(OC)c1OC [Trithiozine, reference compound]
[9]
  ED50: ~240 mg/kg

## CN(C)CCCO/N=C1C=C(/C=C/c2c(Cl)cccc2Cl)CC(C)(C)C/1 [Example 7, 5,5-Dimethyl-3-[(2',6'-dichloro-phenyl)-vinyl]-1-(E)-(3"-dimethylamino-propoxyimino)-2-cyclohexene]
[1]
  ED50: 80 mg/kg
  Therapeutical index: 25.0
[3]
  LD50 at 168 h: 2000 mg/kg
[4]
  Therapeutical index: 25
[6]
  ED50: 60 mg/kg
  Therapeutical index: 33.3

## CN(C)CCCO/N=C1C=C(/C=C/c2ccc(Cl)cc2)CC(C)(C)C/1 [Example 5, 5,5-Dimethyl-3-(E)-[(4'-chloro-phenyl)-vinyl]-1-(E)-(3"-dimethylamino-propoxyimino)-2-cyclohexene]
[1]
  ED50: 125 mg/kg
  Therapeutical index: 16.0
[7]; [10]
  ED50: 155 mg/kg
[7]; Table VII
  Therapeutical index: 12.9
[3]
  LD50 at 168 h: 2000 mg/kg
[5]
  ED50: 120 mg/kg
  Therapeutical index: 17.0

## CC(C)N(CCO/N=C1C=C(/C=C/c2ccccc2)CC(C)(C)C/1)C(C)C [Example 12]
[1]
  ED50: 23 mg/kg
  Therapeutical index: 43.5
[2]
  ED50: 100 mg/kg
[7]; [10]
  ED50: 50 mg/kg
[7]; Table VII
  Therapeutical index: 20.0
[3]
  LD50 at 168 h: 1000 mg/kg

## OC(CCN1CCCCC1)(c1ccccc1)C1CCCCC1 (centres unmarked) [Trihexyphenidyl, reference compound]
[4]
  ED50: 20 mg/kg

## CN(C)CCCO/N=C1C=C(/C=C/c2ccccc2Cl)CC(C)(C)C/1 [Example 9, 5,5-Dimethyl-3-(E)-[(2'-chloro-phenyl)-vinyl]-1-(E)-(3"-dimethylamino-propoxyimino)-2-cyclohexene]
[1]
  ED50: 160 mg/kg
  Therapeutical index: 12.5
[3]
  LD50 at 168 h: 2000 mg/kg
[6]
  ED50: 50 mg/kg
  Therapeutical index: 40

## CN(C)CCCO/N=C1C=C(/C=C/c2cccc(Cl)c2)CC(C)(C)C/1 [Example 8, 5,5-Dimethyl-3-(E)-[(3'-chloro-phenyl)-vinyl]-1-(E)-(3"-dimethylamino-propoxyimino)-2-cyclohexene]
[1]
  ED50: 58 mg/kg
  Therapeutical index: 34.5
[2]
  ED50: 180 mg/kg
  Therapeutical index LD50 /ED50: 11.1
[7]; [10]
  ED50: 178 mg/kg
[7]; Table VII
  Therapeutical index: 11.2
[3]
  LD50 at 168 h: 2000 mg/kg
[4]
  ED50: 35 mg/kg
[6]
  ED50: 35 mg/kg
  Therapeutical index: 57.1
[5]
  ED50: 170 mg/kg
  Therapeutical index: 11.8

## CCOc1ccccc1OCC1CNCCO1 (centres unmarked) [Viloxazin, reference compound]
[6]
  ED50: 20 mg/kg

## CC(C)N(CCO/N=C1C=C(/C=C/c2ccc(Cl)cc2)CC(C)(C)C/1)C(C)C [Example 14, 5,5-Dimethyl-3-(E)-[(4'-chloro-phenyl)-vinyl]-1-(E)-2'"-[bis-(2"-methyl-ethyl)-amino-ethoxyimino]-2-cyclohexene]
[1]
  ED50: 70 mg/kg
  Therapeutical index: 28.5
[3]
  LD50 at 168 h: 2000 mg/kg

## COc1ccc(/C=C/C2=CC(=N/OCCCN(C)C)/CC(C)(C)C2)cc1OC [Example 10, 5,5-Dimethyl-3-(E)-[(3',4'-dimethoxy-phenyl)-vinyl]-1-(E)-(3"-dimethylamino-propoxyimino)-2-cyclohexene]
[7]; [10]
  ED50: 153 mg/kg
[7]; Table VII
  Therapeutical index: 6.5
[3]
  LD50 at 168 h: 1000 mg/kg
[6]
  ED50: 40 mg/kg
  Therapeutical index: 25
[5]
  ED50: 60 mg/kg
  Therapeutical index: 16.7

## CC(=O)Nc1ccc(O)cc1 [Paracetamol, reference compound]
[7]; [10]
  ED50: 180 mg/kg

## CC1(C)CC(/C=C/c2ccc(Cl)cc2)=CC(=N/OCCCN2CCOCC2)/C1 [Example 24, 5,5-Dimethyl-3-(E)-[(4'-chloro-phenyl)-vinyl]-1-(E)-(N-morpholino-propoxyimino)-2-cyclohexane]
[1]
  ED50: 110 mg/kg
  Therapeutical index: > 9.1
[3]
  LD50 at 168 h: > 1000 mg/kg
